# Test results taken from PubChem BioAssay AID1996.
# Conditions: buffer; pH 7.4; 200.0 µM
row,Compound,solubility kinetic
1,COc1ccccc1CNC(=O)CS(=O)(=O)c1ccc(C)cc1,> 50 µg/mL
2,O=S(=O)(Nc1ccccc1Br)c1cccs1,> 47.7 µg/mL
3,O=C(COC(=O)c1ccc(O)cc1O)NC1CC1,> 37.7 µg/mL
4,O=C(Nc1ccccc1F)c1cnccn1,> 32.6 µg/mL
5,Cc1nccn1CCOc1ccc(Cl)cc1.O=C(O)C(=O)O,45 µg/mL
6,COC(=O)c1cc(CNC(=O)Cc2ccsc2)ccc1OC,47.5 µg/mL
7,Cc1csc(NC(=O)c2cnc3ccccc3n2)n1,12.5 µg/mL
8,CCOC(=O)CSc1nc(COc2ccccc2)nc2ccccc12,0.6 µg/mL
9,O=C(NCc1ccco1)c1cnn2cccnc12,> 36.3 µg/mL
10,O=C1NC(=O)C(=Cc2ccc(Sc3ccccc3)o2)C(=O)N1,40.5 µg/mL
11,Clc1ccc(CNc2ncccn2)cc1,24.4 µg/mL
12,COc1ccc(NC(=O)CN2C(=O)COc3ccc(C)cc32)cc1,3.3 µg/mL
13,FC(F)(F)c1cccnc1Oc1ccc(C2=NCCS2)cc1,0.6 µg/mL
14,O=C(Nc1ccccc1)c1ccccc1NC(=O)c1ccccc1C(=O)O,52.6 µg/mL
15,CCCc1ncc(C(O)c2ccccc2OC)n1C (stereo not given),> 39.1 µg/mL
16,O=C1Nc2cccnc2N(C(=O)CCl)c2ccccc21,> 43.2 µg/mL
17,O=C(CNC(=O)c1ccc(Cl)cc1)Nc1ccccc1C(F)(F)F,3.4 µg/mL
18,Brc1ccc(C2NCCS2)cc1 (stereo not given),29.3 µg/mL
19,O=C(CNC(=O)C1CCCCC1)NCc1ccco1,> 39.6 µg/mL
20,O=C(CSc1ccccc1)NC1CCCCCCC1,40.6 µg/mL

row,Compound,solubility kinetic
1,O=C(CSc1nc(O)cc(=O)[nH]1)N1CCOCC1,> 40.7 µg/mL
2,CC(C)(C)c1ccc(NC(=S)NCCc2ccccn2)cc1,5.1 µg/mL
3,Cc1ccc(CN2CCN(Cc3ccncc3)CC2CCO)o1 (stereo not given),34.3 µg/mL
4,COc1cc(C(=O)OCC(=O)Nc2ccc(S(=O)(=O)N3CCCC3)cc2)cc(OC)c1OC,18.1 µg/mL
5,CCCCN(CC)Cc1c(O)ccc2c(-c3ccccc3)cc(=O)oc12,36.1 µg/mL
6,Cn1cc(-c2cccc(C(F)(F)F)c2)cc(C#N)c1=O,7.6 µg/mL
7,CCOc1ccc(-n2c([O-])cc(=O)[nH]c2=O)cc1.[NH4+],35.2 µg/mL
8,c1ccc2c(c1)Sc1ccccc1N2CC1CN2CCC1CC2 (stereo not given),> 48.4 µg/mL
9,COC(=O)c1c(SCC(=O)Nc2ccc(C)cc2)nc(=O)[nH]c1C,8.4 µg/mL
10,Oc1ccc(CNc2ccccc2)c2cccnc12,3.5 µg/mL
11,O/N=C/Cc1[nH]c2ccccc2c1-c1ccccc1,34.8 µg/mL
12,O=C(Nc1ccccc1F)c1cc(-c2ccco2)nc2ccccc12,0.7 µg/mL
13,CC(C)(C)C(=O)Nc1nnc(SCC(=O)NC2CC2)s1,> 47.2 µg/mL
14,O=[N+]([O-])c1ccc(N2CCN(c3ccccc3)CC2)cc1,< 0.2 µg/mL
15,COc1ccc(CCNc2ccc([N+](=O)[O-])cn2)cc1,7.1 µg/mL
16,O=C1CNC(=S)N1Cc1ccc(Cl)cc1,> 36.1 µg/mL
17,O=C1CNC(=O)/C1=C/c1ccc(Br)cc1,26.9 µg/mL
18,CC(C)Cn1c(-c2cccnc2)nc2c1c(=O)[nH]c(=O)n2CC(C)C,45.7 µg/mL
19,CCc1noc(C)c1C(=O)Nc1ccccc1N1CCOCC1,> 47.3 µg/mL
20,Cn1c(SCC(=O)NC2CCCCC2)nnc1-c1ccccn1,> 49.7 µg/mL

row,Compound,solubility kinetic
1,CC1CC(C)CN(S(=O)(=O)CC23CCC(CC2=O)C3(C)C)C1 (stereo not given),44.8 µg/mL
2,CC(=O)n1cc(Nc2ccc([N+](=O)[O-])cc2)c2ccccc21,4.6 µg/mL
3,O=C(Cc1cccs1)Nc1ccc(F)cc1,> 35.3 µg/mL
4,COc1ccccc1C/C(N)=N/OC(=O)c1cccs1,42.8 µg/mL
5,Nc1nc2c(Cl)cc(Cl)cc2s1,7.4 µg/mL
6,N#C/C(=C\c1ccc(F)c(Cl)c1)S(=O)(=O)c1ccccn1,44 µg/mL
7,Cc1ccc(CNC(=O)CSc2ccsc2[N+](=O)[O-])cc1,5.3 µg/mL
8,c1ccc2nc3ccccc3nc2c1,12.3 µg/mL
9,O=C(CCCn1c(=O)oc2ccccc21)Nc1ccccc1,42.2 µg/mL
10,CCC(=O)c1ccc(OCC(=O)Nc2nc(C)cs2)cc1,8.9 µg/mL
11,Cc1ccc(CNC(=O)CCSCc2ccccc2C)cc1,6.5 µg/mL
12,O=C(CCNC(=O)c1ccc(Br)cc1)NCc1ccco1,> 52.7 µg/mL
13,O=C(O)c1cc(-c2ccc(Br)s2)nc2ccccc12,> 50.1 µg/mL
14,COc1ccc(Cl)cc1NC(=O)CN(C)Cc1cccs1,3 µg/mL
15,CC(C)(C)C(=O)CSc1ncnc2sc3c(c12)CCC3,0.7 µg/mL
16,Cc1ccc(N2CC(C(=O)N3CCCCC3)CC2=O)cc1C (stereo not given),> 45.1 µg/mL
17,CC(=O)Nc1cccc(C(=O)NC(C)c2ccc(-n3ccnc3)cc2)c1 (stereo not given),45.5 µg/mL
18,Cc1ccc2[nH]cc(S(=O)(=O)c3ccc(C(C)C)cc3)c(=O)c2c1,< 0.7 µg/mL
19,CCc1ccc(S(=O)(=O)N2CCN(C(=O)c3cccnc3)CC2)cc1,> 53.9 µg/mL
20,O=C(O)C1C2C=CC(C2)C1C(=O)NCc1ccc(Cl)cc1Cl (stereo not given),45.3 µg/mL
